One compound from ChEMBL document CHEMBL1123796, “New antitumor agents containing the anthracene nucleus” (1987) can be followed below.

What all share (type): functional
In experiment [1] the test system is Mus musculus. The experiment in a line: Tested for high-dose toxicity in mice at a significant dose of 100 mg/kg administered intraperitoneally after 5 days of treatment. The settings on record: route intraperitoneal.
Experiment [2] can be described thus: In vitro inhibition of human UACC-66 ovarian tumor cell line growth. The settings on record: read-out: ID50 (the source's name).
The subject of experiment [3] is Mus musculus. The experiment in a line: Tested for skin toxicity in BALB/c mice at a significant dose of 2.00 mg/kg administered intraintradermally and involved concentric circular areas of induration.
The next experiment concerns RPMI-8226. The experiment in a line: Effect on protein synthesis was determined by incorporation of radioligand into 8226 human myeloma cells at a concentration of 10 ug/mL (*: >1 log cell kill).
A further experiment has as its system L1210. The experiment in a line: Antileukemic activity against L-1210 cells in mice at a dose of 80 mg/kg administered intraperitoneally after 5 day treatment. The settings on record: Mus musculus, L1210, ip, 120 h, route intraperitoneal.
For experiment [4], the system named is Mus musculus. The experiment in a line: Tested for skin toxicity in BALB/c mice at a significant dose of 2.5 mg/kg administered intraintradermally and involved concentric circular areas of induration.
Experiment [5] concerns Mus musculus. The experiment in a line: Tested for percent average weekly weight change in mice at a significant dose of 70 mg/kg administered intraperitoneally after 5 days of treatment. The settings on record: route intraperitoneal.

In the case of `CN(C)CCNCc1c2ccccc2c(CNCCN(C)C)c2ccccc12`, in the experiment on Mus musculus [1], the Lethality was 80% and the “Median day of death” value is listed as 8. Further, in experiment [2], the IC50 turned out to be 1600 nM. Also, in the experiment on Mus musculus [3], the “Extent of skin lesions” value is reported as 5.3 cm**2. Further, in the experiment on RPMI-8226, the inhibition (as a rule, the relative decrease from the control value, in per cent) at 10 µg/mL came to 17.6%. For the same compound, the ILS (usually how much longer treated animals lived than controls) at 80 mg/kg in the experiment with L1210 stood at 15%. Moreover, the “Extent of skin lesions” value in the experiment on Mus musculus [4] is reported as 6.1 cm**2. Moreover, the “Average weekly weight change” value with Mus musculus [5] was -7%.
